# Experimental data reported in US20200345805A1, “COMPOSITIONS AND METHODS USEABLE FOR TREATMENT OF DRY EYE” (priority 2019, published 2020).
# Non-standard residues stand in square brackets, D forms with d. Residues, ends and D or L forms follow the SMILES beside them. Cya = N[C@@H](CS(=O)(=O)O)C(=O)O
# Tested on: Integrin αMβ2
# Assay: Expression of integrin αMβ2 in ischemic retinopathy of prematurity (ROP) mice after Risuteganib treatment
# Type: in vivo
# Details: FIG. 1
# Text: FIG. 1 is a graphic showing expression of integrin αMβ2 in ischemic retinopathy of prematurity (ROP) mice after Risuteganib treatment. Risuteganib is a small peptide that acts as an integrin inhibitor. Risuteganib targets multiple integrin subunits, including Integrin αMβ2 which is sometimes referred to as the “compliment 3 receptor” and is actively involved in inflammatory pathways and, in particular, the compliment 3 pathway. […] By causing such inhibition of Integrin αMβ2 Risuteganib may interfere with leucocyte adhesion and trans-endothelial migration, thereby resulting in decreased inflammation and improvement in the symptoms of Dry Eye.
smiles,measurement,value
"C[C@@H](O)[C@H](NC(=O)[C@H](CS(=O)(=O)O)NC(=O)CNC(=O)[C@H](CCCNC(=N)N)NC(=O)CN)C(=O)N1CCC[C@H]1C(=O)O [Risuteganib, Glycyl-L-arginylglycyl-3-sulfo-L-alanyl-L-threonyl-L-proline] (H-GRG[Cya]TP-OH)",expression of Integrin αMβ2,decreases expression
